# Results taken from ChEMBL document CHEMBL1208748 (Bioorg Med Chem Lett, 2010).
# pKi: −log10 of the molar value.
# Key:
# Carbonic anhydrase 3 = Carbonic anhydrase 3 (Homo sapiens, UniProt P07451)
# [1] = molecular target: Carbonic anhydrase 5B, mitochondrial (Homo sapiens, UniProt Q9Y2D0)
# Carbonic anhydrase 13 = Carbonic anhydrase 13 (Homo sapiens, UniProt Q8N1Q1); assay: Inhibition of human recombinant carbonic anhydrase 13 after 15 mins by stopped-flow CO2 hydration assay
# [2] = molecular target: Carbonic anhydrase 5A, mitochondrial (Homo sapiens, UniProt P35218); assay: Inhibition of human recombinant carbonic anhydrase 5a after 15 mins by stopped-flow CO2 hydration assay
# Sequence of Carbonic anhydrase 5A, mitochondrial (P35218 whole entry): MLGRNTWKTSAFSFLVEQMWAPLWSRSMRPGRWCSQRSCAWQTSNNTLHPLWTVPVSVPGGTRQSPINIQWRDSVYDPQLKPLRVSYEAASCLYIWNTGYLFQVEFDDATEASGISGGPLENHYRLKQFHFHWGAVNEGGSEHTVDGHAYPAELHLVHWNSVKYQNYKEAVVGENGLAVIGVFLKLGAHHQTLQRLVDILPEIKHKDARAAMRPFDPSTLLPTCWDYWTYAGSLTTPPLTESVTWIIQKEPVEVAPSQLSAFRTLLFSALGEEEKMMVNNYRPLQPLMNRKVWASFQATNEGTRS
# Carbonic anhydrase 14 = Carbonic anhydrase 14 (Homo sapiens, UniProt Q9ULX7); assay: Inhibition of human recombinant carbonic anhydrase 14 after 15 mins by stopped-flow CO2 hydration assay
# Sequence of Carbonic anhydrase 14 (Q9ULX7 whole entry): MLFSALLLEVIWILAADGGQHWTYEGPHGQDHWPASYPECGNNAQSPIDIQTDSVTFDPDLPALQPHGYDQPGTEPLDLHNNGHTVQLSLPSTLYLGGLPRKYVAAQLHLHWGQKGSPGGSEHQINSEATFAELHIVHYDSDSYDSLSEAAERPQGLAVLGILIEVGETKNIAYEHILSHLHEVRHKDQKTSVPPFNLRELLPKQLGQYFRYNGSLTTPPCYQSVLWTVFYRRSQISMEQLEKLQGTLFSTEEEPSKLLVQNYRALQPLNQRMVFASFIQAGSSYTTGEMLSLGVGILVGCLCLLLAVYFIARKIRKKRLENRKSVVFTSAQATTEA
# Carbonic anhydrase 7 = Carbonic anhydrase 7 (Homo sapiens, UniProt P43166)
# Sequence of Carbonic anhydrase 7 (P43166 whole entry): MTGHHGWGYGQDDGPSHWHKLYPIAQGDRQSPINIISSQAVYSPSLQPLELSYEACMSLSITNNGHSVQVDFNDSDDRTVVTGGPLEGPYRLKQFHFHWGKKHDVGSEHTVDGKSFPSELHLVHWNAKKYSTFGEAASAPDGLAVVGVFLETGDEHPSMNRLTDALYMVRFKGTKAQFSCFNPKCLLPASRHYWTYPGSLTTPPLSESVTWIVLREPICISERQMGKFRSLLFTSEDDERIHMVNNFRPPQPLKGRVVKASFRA
# Carbonic anhydrase 15 = molecular target: T1, Carbonic anhydrase 15 (Mus musculus, UniProt Q99N23)
# T1 sequence (Q99N23 whole entry): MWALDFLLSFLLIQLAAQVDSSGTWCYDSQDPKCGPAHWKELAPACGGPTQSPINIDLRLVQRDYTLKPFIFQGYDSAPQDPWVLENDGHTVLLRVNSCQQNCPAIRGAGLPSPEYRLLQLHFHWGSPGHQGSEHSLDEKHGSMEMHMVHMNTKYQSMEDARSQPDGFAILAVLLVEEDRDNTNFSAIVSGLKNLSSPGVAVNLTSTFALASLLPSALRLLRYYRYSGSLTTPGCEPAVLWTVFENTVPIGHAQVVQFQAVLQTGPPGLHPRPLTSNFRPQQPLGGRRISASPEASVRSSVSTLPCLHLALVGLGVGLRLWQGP
# Carbonic anhydrase 12 = Carbonic anhydrase 12 (Homo sapiens, UniProt O43570)
# Sequence of Carbonic anhydrase 12 (O43570 whole entry): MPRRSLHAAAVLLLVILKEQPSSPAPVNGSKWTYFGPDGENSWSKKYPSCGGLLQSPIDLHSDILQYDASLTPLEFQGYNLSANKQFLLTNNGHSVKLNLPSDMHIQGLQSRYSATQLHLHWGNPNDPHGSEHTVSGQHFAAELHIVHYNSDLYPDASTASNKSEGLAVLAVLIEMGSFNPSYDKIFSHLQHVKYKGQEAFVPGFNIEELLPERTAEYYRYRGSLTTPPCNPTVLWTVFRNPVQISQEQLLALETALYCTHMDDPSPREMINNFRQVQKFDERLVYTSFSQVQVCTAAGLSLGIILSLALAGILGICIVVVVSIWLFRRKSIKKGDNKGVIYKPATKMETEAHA
# Carbonic anhydrase 1 = Carbonic anhydrase 1 (Homo sapiens, UniProt P00915)
# Sequence of Carbonic anhydrase 1 (P00915 whole entry): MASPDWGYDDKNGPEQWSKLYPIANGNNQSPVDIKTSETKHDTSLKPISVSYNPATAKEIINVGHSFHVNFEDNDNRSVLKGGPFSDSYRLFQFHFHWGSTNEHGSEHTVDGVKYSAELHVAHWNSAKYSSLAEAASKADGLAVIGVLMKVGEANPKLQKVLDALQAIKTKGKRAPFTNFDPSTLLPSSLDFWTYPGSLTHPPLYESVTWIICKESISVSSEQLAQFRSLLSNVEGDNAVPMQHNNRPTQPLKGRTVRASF
# Carbonic anhydrase 9 = Carbonic anhydrase 9 (Homo sapiens, UniProt Q16790)
# Sequence of Carbonic anhydrase 3 (P07451 whole entry): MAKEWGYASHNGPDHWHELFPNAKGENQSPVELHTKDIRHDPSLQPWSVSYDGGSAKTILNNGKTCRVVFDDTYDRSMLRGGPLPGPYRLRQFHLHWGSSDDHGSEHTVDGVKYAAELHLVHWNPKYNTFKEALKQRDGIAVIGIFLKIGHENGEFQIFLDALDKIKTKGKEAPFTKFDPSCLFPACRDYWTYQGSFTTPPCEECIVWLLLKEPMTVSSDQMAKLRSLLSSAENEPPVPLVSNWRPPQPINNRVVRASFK
# Sequence of Carbonic anhydrase 13 (Q8N1Q1 whole entry): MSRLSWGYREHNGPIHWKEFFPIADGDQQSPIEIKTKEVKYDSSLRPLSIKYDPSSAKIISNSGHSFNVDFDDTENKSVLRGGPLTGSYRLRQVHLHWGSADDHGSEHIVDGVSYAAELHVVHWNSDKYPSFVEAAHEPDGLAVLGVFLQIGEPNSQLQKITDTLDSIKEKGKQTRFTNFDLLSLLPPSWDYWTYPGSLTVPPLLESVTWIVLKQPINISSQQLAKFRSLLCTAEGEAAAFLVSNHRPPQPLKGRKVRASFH
# Sequence of Carbonic anhydrase 5B, mitochondrial (Q9Y2D0 whole entry): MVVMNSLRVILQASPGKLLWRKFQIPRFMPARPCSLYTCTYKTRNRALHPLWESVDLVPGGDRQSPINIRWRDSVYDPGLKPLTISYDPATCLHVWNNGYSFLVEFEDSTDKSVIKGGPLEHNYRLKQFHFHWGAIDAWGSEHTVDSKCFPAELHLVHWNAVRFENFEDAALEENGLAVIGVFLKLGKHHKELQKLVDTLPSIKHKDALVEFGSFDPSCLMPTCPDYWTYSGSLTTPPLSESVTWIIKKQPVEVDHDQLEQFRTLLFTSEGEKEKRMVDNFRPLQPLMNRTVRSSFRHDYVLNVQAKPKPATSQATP
Structure (SMILES),pKi (Carbonic anhydrase 3),pKi [1],pKi (Carbonic anhydrase 13),pKi [2],pKi (Carbonic anhydrase 14),pKi (Carbonic anhydrase 7),pKi (Carbonic anhydrase 15),pKi (Carbonic anhydrase 12),pKi (Carbonic anhydrase 1),pKi (Carbonic anhydrase 9)
Nc1nnc(S(N)(=O)=O)s1,3.82,,7.10,,,,,7.47,,
NS(=O)(=O)c1nnc(NC(=O)C23CC4CC(CC(C4)C2)C3)s1,3.52,,,,,7.46,6.19,8.55,6.05,8.19
NS(=O)(=O)c1nnc(NC(=O)CC23CC4CC(CC(C4)C2)C3)s1,3.39,,,,,7.32,6.14,8.33,6.44,7.31

# More lines, now with the values ahead:
pKi (Carbonic anhydrase 3),pKi [1],pKi (Carbonic anhydrase 13),pKi [2],pKi (Carbonic anhydrase 14),pKi (Carbonic anhydrase 7),pKi (Carbonic anhydrase 15),pKi (Carbonic anhydrase 12),pKi (Carbonic anhydrase 1),pKi (Carbonic anhydrase 9),Structure (SMILES)
4.15,7.03,7.01,6.10,6.16,,,,,,Cc1ccc(-c2cc(C(F)(F)F)nn2-c2ccc(S(N)(=O)=O)cc2)cc1 [CELECOXIB]
,,,,,8.54,7.52,7.89,,,Nc1c(F)cc(S(=O)(=O)Nc2nnc(S(N)(=O)=O)s2)cc1Cl
3.52,,,,,,7.47,,,,Cc1cc(C)[n+](CCc2ccc(S(N)(=O)=O)cc2)c(C)c1
